≈ marks a conversion by molar mass, not a printed value.
System: P388
Assay: Cytotoxicity against mouse P388 cells
Assay type: functional, cell-based

Compound	IC50
C=C1C[C@](OC)([C@H](O)C(=O)N[C@H]2OCO[C@H]3[C@@H]2O[C@H](C[C@H](O)CO)C(C)(C)[C@@H]3OC)O[C@H](C)[C@@H]1C [MYCALAMIDE A]	0.0011 µg/mL (≈ 0.00218 µM)
C=C1C[C@](OC)([C@H](O)C(=O)NC[C@H]2O[C@H](CO)C(C)(C)[C@H](O)[C@H]2O)O[C@H](C)[C@@H]1C [MYCALAMIDE C]	0.095 µg/mL (≈ 0.228 µM)
C=C1C[C@](OC)([C@H](O)C(=O)N[C@H]2OCO[C@H]3[C@@H]2O[C@H](C[C@H](O)CO)C(C)(C)[C@@H]3O)O[C@H](C)[C@@H]1C [MYCALAMIDE D]	0.035 µg/mL (≈ 0.0715 µM)
C=C1C[C@](OC)([C@H](O)C(=O)N[C@@H]2OCO[C@H]3[C@@H]2O[C@H](CO)C(C)(C)[C@@H]3OC)O[C@H](C)[C@@H]1C [THEOPEDERIN E]	0.0009 µg/mL (≈ 0.00196 µM)

Source: ChEMBL document CHEMBL1142617, “Mycalamides C and D, cytotoxic compounds from the marine sponge Stylinos n. species” (J Nat Prod, 2000)
